Like-named read-outs stand apart in the source and are kept apart here.
What was measured:
pregnant hamsters = assay: Antifertility ED50 in pregnant hamsters; assay type: in vivo, hamster; details: for ED50: Mesocricetus auratus
Experimental: (§1) Said compositions are administered to pregnant Lakeview hamsters arriving at day 1 postcoitus, which are maintained in a day-night reversed room (11 A.M. to 11 P.M.). Food and water is given ad libitum. Six hamsters per group are used (3 per cage) and each test is carried out with a control group receiving said excipients only. The orally administered AGT is given for 3 consecutive days starting on day 3 postcoitus, at a rate of 5 ml/kg body weight, and these animals are sacrificed on day 10 to 12 postcoitus. The subcutaneously administered TPF is given once on day 5 postcoitus only, at a volume of 0.2 ml per animal, and these animals are sacrificed on day 8 postcoitus. The uterus of each animal is inspected and implantation sites are counted and recorded according to viable or resorbed fetuses. Percent inhibition is determined by comparison of treated groups over the control group.

pregnant rats [1] = assay: Resorption of embryos by s.c. prostaglandins in pregnant rats; assay type: in vivo, rat; details: for Fetuses / Resorptions / Total Implants: days 4-7
Experimental: (§2) The efficacy of the compositions according to the invention is demonstrable in animal tests, using advantageously mammals, such as rats, hamsters or baboons, as test objects. Thus, for example, adult female rats weighing 190-250 grams are housed in a "reverse room" as described in Contraception 3, 347 (1971), with the exception that the animals have 14 hours of light between 5 P.M. and 7 A.M., and 10 hours of darkness from 7 A.M. to 5 P.M. They are placed with adult male rats from 10 A.M. to 2 P.M. (i.e. "their midnight" ± 2 hours) following which vaginal smears are obtained.
(§3) Said antifertility compounds may be administered orally, e.g. in suspension with the excipient compraising 3% (by weight) of carboxymethylcellulose, 1.05% methylcellulose, 0.8% sodium chloride, 0.1% polysorbate 80 and 0.002% thimerosal in water, as a single dose on day 5 of pregnancy (i.e. the day after implantation unless otherwise specified). Prostaglandins may be injected subcutaneously twice (9 A.M. and 3 P.M.) on days 4-7 in a conventional 0.1M phosphate buffer at pH = 7.45. Aminoglutethimide phosphate can also be administered in aqueous solution orally, subcutaneously, intraperitoneally or intravenously. The rats are sacrificed on day 10 or 11 of pregnancy and the uterus is examined for living and dead fetuses and implantation sites. The terms "abortion" and "resorption" are used interchangeably because by day 10 or 11 the uterine scars resulting from either event are indistinguishable by gross inspection.
However, when the compounds were injected twice daily (9 a.m. and 3 p.m.) in adequate doses on days 4-7 of gestation, implantation occured at the normal time but this was then followed by resorption of the embryos. […]

rats = assay: Activity of TPF in rats; details: rat, in vivo
[2] = system: pregnant Lakeview hamsters; assay: Antifertility effect (percent of litter living) in pregnant hamsters, AGT p.o. and TPF s.c.; assay type: in vivo, hamster
Experimental: Said active ingredients are administered in admixture with the following excipients:
AGT + 3% corn starch + 5% polyethylene glycol 400 + 1 drop of polysorbate 80 per 10 ml of distilled water.
TPF 10 mg per 0.1 ml of ethanol, which solution is diluted with the buffer prepared from 19 ml of 0.2M aqueous monosodium phosphate and 81 ml of 0.2M aqueous disodium phosphate, corrected with the latter to the pH = 7.4.
as §1

rabbits = assay: Activity of TPF in rabbits; details: rabbit, in vivo
[3] = system: conversion of cholesterol to pregnenolone; details: background; cited from earlier work
progesterone secretion = details: pregnant and non-pregnant animals and human beings, background; cited from earlier work
pregnant rats [4] = assay: Combined treatment AGP and PGF2α, resorption of fetuses in pregnant rats; assay type: in vivo, rat
Experimental: as §2, §3

pregnant rats [5] = assay: Abortifacient activity of AGP in pregnant rats (3 doses on day 9; large single or daily oral doses); assay type: in vivo, rat
Experimental: as §2, §3

progesterone levels = assay: Progesterone levels in rats after aminoglutethimide phosphate; assay type: in vivo, rat; details: large single or daily oral doses
[6] = sc, pregnant hamsters, approximative, read-out: ED50 s.c. for antifertility effects
[7] = 100 mg/kg × 3 on day 9, i.p., 10 rats
[8] = 100 mg/kg × 3 on day 9, i.v., 3 rats
[9] = 100 mg/kg × 3 on day 9, p.o., 5 rats

SMILES: CCCCC[C@H](O)/C=C/[C@H]1[C@H](O)CC(=O)[C@@H]1C/C=C\CCCC(=O)O [PGE2]
- ED50 (pregnant hamsters; [6]): 2 mg/kg
- Fetuses (pregnant rats [1]; 200 μg/rat s.c. × 2 daily): 10.6 ± 2.8
- Resorptions (pregnant rats [1]; 200 μg/rat s.c. × 2 daily): 0
- Total Implants (pregnant rats [1]; 200 μg/rat s.c. × 2 daily): 10.6 ± 2.8
- Fetuses (pregnant rats [1]; 400 μg/rat s.c. × 2 daily): 6.6 ± 2.8
- Resorptions (pregnant rats [1]; 400 μg/rat s.c. × 2 daily): 0
- Total Implants (pregnant rats [1]; 400 μg/rat s.c. × 2 daily): 6.6 ± 2.8
- Fetuses (pregnant rats [1]; 800 μg/rat s.c. × 2 daily): 0
- Resorptions (pregnant rats [1]; 800 μg/rat s.c. × 2 daily): 5.6 ± 2.6
- Total Implants (pregnant rats [1]; 800 μg/rat s.c. × 2 daily): 5.6 ± 2.6

SMILES: O=C(O)CCCCCCC1OCC(O)C1/C=C/C(O)COc1cccc(C(F)(F)F)c1 (stereo not drawn) [TPF, 7-[3α-(3β-hydroxy-4-(m-trifluoromethylphenoxy)-1-trans-butenyl)-4β-hydroxy-tetrahydro-2β-furyl]-heptanoic acid]
- oral potency relative to PGF2α (pregnant hamsters; oral, more potent than PGF2α): 10-20 times
- oral antifertility effectiveness (pregnant hamsters; oral, pregnant hamsters): orally effective
- ED50 oral for antifertility effects (pregnant hamsters; oral, pregnant hamsters, approximative): 0.31 mg/kg
- ED50 s.c. for antifertility effects (pregnant hamsters; s.c., pregnant hamsters, approximative): 0.1 mg/kg
- activity in rats (rats): active in rats
- effective as antifertility agent ([2]; 25 μg/animal/s.c.): 64%
- PERCENT OF LITTER LIVING ([2]; TPF 5 μg s.c. day 5, AGT 0 mg): 98%
- PERCENT OF LITTER LIVING ([2]; TPF 10 μg s.c. day 5, AGT 0 mg): 70%
- PERCENT OF LITTER LIVING ([2]; TPF 25 μg s.c. day 5, AGT 0 mg): 36%
- activity in rabbits (rabbits): active in rats and rabbits

SMILES: CC[C@]1(c2ccc(N)cc2)CCC(=O)NC1=O.CC[C@]1(c2ccc(N)cc2)CCC(=O)NC1=O.O.O=C(O)C(O)C(O)C(=O)O.O=C(O)C(O)C(O)C(=O)O [AGT, d-aminoglutethimide d-tartrate hemihydrate]
- effective as antifertility agent ([2]; 500 mg/kg/p.o.): 100%
- PERCENT OF LITTER LIVING ([2]; AGT 100 mg/kg p.o. day 3-5, TPF 0): 90%
- PERCENT OF LITTER LIVING ([2]; AGT 250 mg/kg p.o. day 3-5, TPF 0): 68%
- PERCENT OF LITTER LIVING ([2]; AGT 500 mg/kg p.o. day 3-5, TPF 0): 0%

SMILES: CCC1(c2ccc(N)cc2)CCC(=O)NC1=O (stereo not shown) [aminoglutethimide]
- conversion of cholesterol to pregnenolone in the steroid pathway [3]: blocks the conversion of cholesterol to pregnenolone
- progesterone secretion (progesterone secretion): inhibits progesterone secretion

SMILES: CCCCC[C@H](O)/C=C/[C@@H]1[C@@H](C/C=C\CCCC(=O)O)[C@@H](O)C[C@H]1O [PGF2α, prostaglandin F2α]
- ED50 (pregnant hamsters; [6]): 0.1 mg/kg
- ED50 (pregnant hamsters; oral, pregnant hamsters, approximative, read-out: ED50 oral for antifertility effects): 7.5 mg/kg
- Fetuses (pregnant rats [1]; 100 μg/rat s.c. × 2 daily): 14.2 ± 0.7
- Resorptions (pregnant rats [1]; 100 μg/rat s.c. × 2 daily): 0
- Total Implants (pregnant rats [1]; 100 μg/rat s.c. × 2 daily): 14.2 ± 0.7
- Fetuses (pregnant rats [1]; 200 μg/rat s.c. × 2 daily): 14.4 ± 0.2
- Resorptions (pregnant rats [1]; 200 μg/rat s.c. × 2 daily): 0.2 ± 0.2
- Total Implants (pregnant rats [1]; 200 μg/rat s.c. × 2 daily): 14.6 ± 0.2
- Fetuses (pregnant rats [1]; 400 μg/rat s.c. × 2 daily): 0
- Resorptions (pregnant rats [1]; 400 μg/rat s.c. × 2 daily): 9.6 ± 2.6
- Total Implants (pregnant rats [1]; 400 μg/rat s.c. × 2 daily): 9.6 ± 2.6
- relative activity versus PGE1 and PGE2 (pregnant rats [1]; s.c. twice daily, days 4-7, rats): about twice as active as PGE1 and PGE2
- resorption of fetuses in rats (pregnant rats [4]; PGF2α 1 mg/kg s.c. on day 5 of pregnancy): did not induce resorption of fetuses
- Fetuses (pregnant rats [4]; PGF2α 1 mg/kg s.c., day 5): 15.4 ± 0.6
- Resorptions (pregnant rats [4]; PGF2α 1 mg/kg s.c., day 5): 0
- Total Implants (pregnant rats [4]; PGF2α 1 mg/kg s.c., day 5): 15.4 ± 0.6

SMILES: CCCCC[C@H](O)/C=C/[C@H]1[C@H](O)CC(=O)[C@@H]1CCCCCCC(=O)O [PGE1]
- Fetuses (pregnant rats [1]; 200 μg/rat s.c. × 2 daily): 10.8 ± 2.7
- Resorptions (pregnant rats [1]; 200 μg/rat s.c. × 2 daily): 0
- Total Implants (pregnant rats [1]; 200 μg/rat s.c. × 2 daily): 10.8 ± 2.7
- Fetuses (pregnant rats [1]; 400 μg/rat s.c. × 2 daily): 10.6 ± 2.7
- Resorptions (pregnant rats [1]; 400 μg/rat s.c. × 2 daily): 0
- Total Implants (pregnant rats [1]; 400 μg/rat s.c. × 2 daily): 10.6 ± 2.7
- Fetuses (pregnant rats [1]; 800 μg/rat s.c. × 2 daily): 0
- Resorptions (pregnant rats [1]; 800 μg/rat s.c. × 2 daily): 7.0 ± 1.9
- Total Implants (pregnant rats [1]; 800 μg/rat s.c. × 2 daily): 7.0 ± 1.9

SMILES: CCC1(c2ccc(N)cc2)CCC(=O)NC1=O (stereo not shown) [AGP, aminoglutethimide phosphate]
- Fetuses (pregnant rats [5]; [7]): 4.4 ± 2.2
- Resorptions (pregnant rats [5]; [7]): 8.9 ± 2.0
- Total Implants (pregnant rats [5]; [7]): 13.3 ± 0.6
- Fetuses (pregnant rats [5]; [8]): 4.3 ± 4.3
- Resorptions (pregnant rats [5]; [8]): 10.3 ± 4.7
- Total Implants (pregnant rats [5]; [8]): 14.7 ± 0.7
- Fetuses (pregnant rats [5]; [9]): 13.8 ± 0.9
- Resorptions (pregnant rats [5]; [9]): 0.4 ± 0.4
- Total Implants (pregnant rats [5]; [9]): 14.2 ± 0.7
- abortifacient on day 9 (pregnant rats [5]; given every 8 hours, i.v. versus p.o., rats): abortifacient on day 9 when given every 8 hours i.v., but not p.o.
- abortifacient activity (pregnant rats [5]; large single or daily oral doses, rats): very resistant to the abortifacient activity
- decrease of progesterone levels (progesterone levels): more than 70%
- resorption of fetuses in rats (pregnant rats [4]; AGP 30 mg/kg s.c. days 3-5 of pregnancy): did not induce resorption of fetuses
- Fetuses (pregnant rats [4]; AGP 30 mg/kg s.c., days 3-5): 12.2 ± 1.8
- Resorptions (pregnant rats [4]; AGP 30 mg/kg s.c., days 3-5): 1.6 ± 1.1
- Total Implants (pregnant rats [4]; AGP 30 mg/kg s.c., days 3-5): 13.8 ± 1.0

Reference: US4062964A, “Antifertility-combinations” (Ciba-Geigy Corporation, priority 1976, dated 1977)
